Data: patent US20190353647A1, “NOVEL REAL-TIME MULTIPLEXED, MULTI-COLOR BIOLUMINESCENCE RESONANCE ENERGY TRANSFER ASSAY, APPARATUS, AND USES THEREOF” (Universite de Bordeaux, priority 2016, published 2019)

Key:
[1] = biological target: T1, TRPV3 (Homo sapiens, UniProt Q8NET8); assay: Three-color spectral BRET, Luc-TRPV3/aquamarine-CaM component in mixed HEK293T cells; type: cell-based; set-up: expressed in transfected cells; host or cells: HEK293T (mixed with two other transfected populations); conditions: one mM Drofenine injected at 75 seconds, real time, mixed cell population
T1 sequence (Q8NET8 1-790): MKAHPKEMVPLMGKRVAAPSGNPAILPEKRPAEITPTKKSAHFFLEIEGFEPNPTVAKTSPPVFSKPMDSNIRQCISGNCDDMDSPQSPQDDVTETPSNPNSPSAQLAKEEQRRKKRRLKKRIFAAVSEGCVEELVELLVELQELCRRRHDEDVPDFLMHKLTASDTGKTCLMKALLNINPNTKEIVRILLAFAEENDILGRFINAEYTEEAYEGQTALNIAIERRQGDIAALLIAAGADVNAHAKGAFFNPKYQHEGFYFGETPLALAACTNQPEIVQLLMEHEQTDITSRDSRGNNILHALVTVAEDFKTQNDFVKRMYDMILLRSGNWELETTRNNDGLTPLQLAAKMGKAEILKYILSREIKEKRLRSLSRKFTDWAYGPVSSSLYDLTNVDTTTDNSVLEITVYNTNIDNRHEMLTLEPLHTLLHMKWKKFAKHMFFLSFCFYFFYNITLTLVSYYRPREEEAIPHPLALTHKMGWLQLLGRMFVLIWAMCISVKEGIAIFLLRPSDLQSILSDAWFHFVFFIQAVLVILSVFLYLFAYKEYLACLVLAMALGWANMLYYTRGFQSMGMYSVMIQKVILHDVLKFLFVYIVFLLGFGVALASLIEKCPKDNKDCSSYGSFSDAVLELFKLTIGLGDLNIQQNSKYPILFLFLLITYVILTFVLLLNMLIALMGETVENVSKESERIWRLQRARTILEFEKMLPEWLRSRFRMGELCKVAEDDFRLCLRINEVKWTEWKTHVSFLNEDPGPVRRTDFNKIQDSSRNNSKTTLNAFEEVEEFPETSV
Source text: (§1) FIG. 2: Multiplexing measurements of TRPV activity using multicolor BRET. (A) Example of a three-color BRET spectrum and its decomposition, measured in a coculture containing three HEK293T subpopulations transfected with aquamarine-Luc, mAmetrine-Luc, or LSSmOrange-Luc. The grey dots represent the experimental data. Black, light grey, medium grey, and grey solid lines represent the spectral components of Luc, aquamarine, mAmetrine, and LSSmOrange, respectively. […] Results represent the mean of three independent experiments.
(§2) Full BRET spectra were acquired using an optical fiber linked to a Spectra Pro 2300i spectrometer, equipped with a liquid-nitrogen-cooled CCD camera for recording the full visible spectrum (Acton Optics, Acton, Mass., USA). The bioluminescent signal was recorded from transfected cells seeded onto a glass coverslip and placed into a white opaque measurement chamber made of Teflon® and containing an isotonic solution (NaCl 145 mM, KCl 5 mM, KH2PO4 4 mM, CaCl2 1 mM, MgSO4 1 mM, Glucose 10 mM). The temperature of the cell buffer was regulated using an Eppendorf® ThermoStat Plus and measured in real time using a fiber-optic temperature measurement Luxtron 812 system (Lumasense technologies, Santa Clara, Calif., USA). […]

[2] = biological target: TRPV4 (Homo sapiens, UniProt Q9HBA0); assay: Three-color spectral BRET, TRPV4-Luc/LSSmOrange-CaM component in mixed HEK293T cells; type: cell-based; set-up: expressed in transfected cells; host or cells: HEK293T (mixed with two other transfected populations); conditions: 100 nM GSK101 injected at 75 seconds, real time, mixed cell population
Source text: as §1, §2

Chain of TRPV4 (Q9HBA0 whole entry): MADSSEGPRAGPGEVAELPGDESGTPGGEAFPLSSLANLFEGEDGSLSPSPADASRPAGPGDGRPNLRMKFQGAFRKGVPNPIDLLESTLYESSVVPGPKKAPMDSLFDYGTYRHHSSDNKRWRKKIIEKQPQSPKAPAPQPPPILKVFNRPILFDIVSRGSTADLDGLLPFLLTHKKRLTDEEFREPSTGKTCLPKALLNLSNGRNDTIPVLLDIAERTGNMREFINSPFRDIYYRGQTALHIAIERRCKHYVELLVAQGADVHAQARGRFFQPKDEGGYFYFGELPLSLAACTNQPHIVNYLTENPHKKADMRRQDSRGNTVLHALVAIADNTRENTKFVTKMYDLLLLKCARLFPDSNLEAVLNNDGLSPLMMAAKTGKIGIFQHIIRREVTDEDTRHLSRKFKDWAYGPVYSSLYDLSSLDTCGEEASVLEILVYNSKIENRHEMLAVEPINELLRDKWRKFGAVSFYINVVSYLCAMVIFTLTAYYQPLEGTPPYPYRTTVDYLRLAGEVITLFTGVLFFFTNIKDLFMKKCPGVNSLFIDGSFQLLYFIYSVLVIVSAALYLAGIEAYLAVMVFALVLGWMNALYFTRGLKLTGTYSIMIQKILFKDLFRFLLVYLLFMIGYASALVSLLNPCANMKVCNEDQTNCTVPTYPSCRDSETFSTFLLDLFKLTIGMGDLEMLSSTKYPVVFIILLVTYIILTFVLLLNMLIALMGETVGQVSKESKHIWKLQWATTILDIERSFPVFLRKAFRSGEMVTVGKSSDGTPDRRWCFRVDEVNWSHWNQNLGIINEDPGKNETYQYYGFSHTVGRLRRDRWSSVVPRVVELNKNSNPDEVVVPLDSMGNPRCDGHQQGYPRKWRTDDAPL

## CCN(CC)CCOC(=O)C(c1ccccc1)C1CCCCC1 (centres unmarked) [Drofenine]
[1]
  TRPV3-related BRET component in three-color assay: increase in only the TRPV3-related BRET component

## CC(C)C[C@H](NC(=O)c1cc2ccccc2s1)C(=O)N1CCN(C(=O)[C@H](CO)NS(=O)(=O)c2ccc(Cl)cc2Cl)CC1 [GSK1016790A]
[2]
  TRPV4 BRET signal in three-color assay: time-dependent increase
